Results on nine compounds are retold here after publication PMC5037861 (BMC Research Notes, 2016).

Assay [1] addresses T1, human B2R (Homo sapiens, UniProt P30411).
T1 construct: expressed in transfected cells; host or cells: HEK 293a
T1 sequence (P30411 1-391): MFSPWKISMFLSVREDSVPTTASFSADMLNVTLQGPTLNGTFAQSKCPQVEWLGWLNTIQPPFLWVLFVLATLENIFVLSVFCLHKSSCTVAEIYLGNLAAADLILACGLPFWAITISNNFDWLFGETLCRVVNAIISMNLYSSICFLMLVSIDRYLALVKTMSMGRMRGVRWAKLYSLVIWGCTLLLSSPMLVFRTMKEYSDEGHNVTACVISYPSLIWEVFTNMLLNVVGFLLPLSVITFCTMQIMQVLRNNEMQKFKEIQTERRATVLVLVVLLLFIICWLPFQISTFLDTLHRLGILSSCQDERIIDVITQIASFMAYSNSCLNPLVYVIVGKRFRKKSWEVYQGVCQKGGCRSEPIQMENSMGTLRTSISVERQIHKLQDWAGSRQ
Nature of the assay: Competition of [3H]BK (3 nM) binding to HEK 293a cells stably expressing myc-tagged human B2R. As to conditions: from binding competition IC50 values.
From the text: Values are the means ± SEM. of the number of duplicate determinations indicated by n. Average specific binding without competitor (100 %) averaged 133.8 fmol/well.

Assay [2] concerns T2, rabbit B2R-GFP.
T2 construct: expressed in transfected cells; host or cells: HEK 293
Nature of the assay: Confocal microscopy of HEK 293 cells stably expressing B2R-GFP. Format: cell-based. As to conditions: for infrared labeling of cells: followed by rinsing.

The subject of assay [3] is T3, β2-adrenoceptor-GFP Topaz fusion protein.
T3 construct: expressed in transfected cells; host or cells: HEK 293 (transient, polyethylenimine); vector a gift from Prof; Michel Bouvier
Put plainly: Confocal microscopy of HEK 293 cells transiently expressing β2-adrenoceptor-GFP Topaz (specificity control). Format: cell-based. As to conditions: for labeling of cells expressing β2-adrenoceptor-GFP Topaz: B-10665 10 nM, B-10666 100 nM, 30 min; for β2-adrenoceptor-GFP endocytosis: isoproterenol 100 nM 30 min, propranolol 1 μM pretreatment.

For assay [4], the target named is T4, endogenous B2R (Homo sapiens, UniProt P30411).
T4 sequence (P30411 1-391): T1 sequence (P30411 1-391)
Nature of the assay: Human isolated umbilical vein contractility assay. On the set-up: The human umbilical vein is a contractile bioassay for the endogenous B2R; from tissue; host or cells: human isolated umbilical vein (A2); slices of human umbilical cord (A8). The following applies: agonist contraction; based on an extrapolated concentration-effect curve. Here is the method:
Local ethics review boards approved the anonymous use of segments of human umbilical cords obtained following elective cesarean sections; informed consent was obtained from the mothers. Novel Cy-7 conjugated B2R ligands were assayed via the contraction of the human isolated umbilical vein [9, 10]. Cumulative concentration effect curves were constructed for the agonist version and its potency compared to that of BK. […] Results are presented as mean ± SEM. Radioligand binding data were fitted by nonlinear regression to a one-site competition equation using a least-square method (Prism 5.0, GraphPad Software Inc., San Diego, CA, USA) and IC50 values with their 95 % confidence limits were calculated from this procedure. The same computer program was used to draw concentration-effect curves (least square fitting of sigmoidal dose–response equation with variable slope) and to derive contractile EC50 values.

Assay [5] concerns T5, human myc-tagged B2Rs.
T5 construct: expressed in transfected cells; host or cells: HEK 293a
Put plainly: Cytofluorometry of detached HEK 293a cells stably expressing human myc-tagged B2Rs. Type of assay: cell-based. Here is the method: A subclone of HEK 293 cells, called HEK 293a, originally obtained from Sigma-Aldrich was used in these experiments, either as a non-transfected cell type or as one stably expressing myc-tagged human B2Rs. These cells were grown in Dulbecco’s modified Eagle’s medium supplemented with 10 % fetal bovine serum, 1 % L-glutamine, and 1 % penicillin–streptomycin stock solutions (100×). Cells were detached using the protease-free Cell Dissociation Buffer (Invitrogen), incubated in D-MEM without serum at 37 °C for 30 min under agitation in the presence of a Cy7-conjugated ligands and other drugs, rapidly centrifuged (30 s, 11,000g) and resuspended in phosphate buffered saline. Then, the fluorescence of the cell suspensions was assessed using the BD SORP LSR II cell analyzer for the uptake of the as a function of stimulation and transgene expression. The cytofluorometry results were analyzed using the BD FACS DIVA software.

In assay [6] the target is T1, human B2R. Nature of the assay: IVIS infrared fluorescence imaging of cell wells, HEK 293a cells expressing human myc-B2R. Type of assay: cell-based. The following applies: 1–10 nM, 30 min, 37 °C. The text has this:
(§1) The apparatus was set in fluorescence mode with filters at 675 nm (excitation) and 831 nm (emission), medium binning and 60 s exposure time. This experiment exploited HEK 293a cells grown in 24-well plates that stably expressed either human or rat B2R sequences N-terminally tagged with the myc epitope. Expression of these receptors as a function of pharmacologic treatment was controlled in separate plates of cells that were not fixed or permeabilized using the binding of anti-myc monoclonal antibody (clone 4A6, Millipore, dilution 1:1000) added along goat horseradish peroxidase-conjugated anti-mouse IgG antibodies (Santa Cruz, dilution 1:1000). […] The resulting blue precipitate was photographed at the macroscopic scale.

The test system of assay [7] is T6, rat B2R.
T6 construct: expressed in transfected cells; host or cells: HEK 293a
Nature of the assay: IVIS infrared fluorescence imaging of cell wells, HEK 293a cells expressing rat myc-B2R. Type of assay: cell-based. The following applies: 1–10 nM, 30 min, 37 °C.
From the text: as §1

The target in assay [8] is T4, endogenous B2R. Nature of the assay: IVIS infrared fluorescence imaging of slices of human umbilical cord. On the set-up: The human umbilical vein is a contractile bioassay for the endogenous B2R; from tissue; host or cells: human isolated umbilical vein (A2); slices of human umbilical cord (A8). As to conditions: up to 250 nM, data not shown.
Assay [9] addresses T4, endogenous B2R. On the set-up: The human umbilical vein is a contractile bioassay for the endogenous B2R; from tissue; host or cells: human isolated umbilical vein (A2). As to conditions: cited from earlier work; for pA2: antagonism of BK-induced contraction.

As to `CN1C(=CC=C2C=C(C=CC3=[N+](CCCCCC(=O)N[C@H](CCCNC(=N)N)C(=O)N[C@@H](CCCNC(=N)N)C(=O)N4CCC[C@H]4C(=O)N4C[C@H](O)C[C@H]4C(=O)NCC(=O)N[C@H](C(=O)N[C@@H](CO)C(=O)N4[C@H](C(=O)N[C@H](C(=O)N[C@@H](CCCNC(=N)N)C(=O)O)C5Cc6ccccc6C5)C[C@@H]5CCCC[C@@H]54)C4Cc5ccccc5C4)c4ccccc4C3(C)C)CCC2)C(C)(C)c2ccccc21` [Peptide B-10666, Cy7-B-9972], the “loss of affinity vs. parent peptide” value in assay [1] is listed as ~ 35 fold. For the same compound, in assay [2] (30 min, 37 °C), the “infrared labeling of cells” value is on record as “did not label untransfected cells or icatibant-pretreated receptor-expressing cells”. In [2] (30 min, 37 °C, live cells), the “endocytosis of B2R-GFP” value is reported as “determined the endocytosis of a fraction of the plasma membrane receptors”. Moreover, the “labeling of cells expressing β2-adrenoceptor-GFP Topaz” value in [3] is “Lack of labeling”. Further, the “loss of potency vs. BK” value in assay [4] is 4240 fold.

On to `CN1C(=CC=C2C=C(C=CC3=[N+](CCCCCC(=O)N[C@H](CCCNC(=N)N)C(=O)N[C@@H](CCCNC(=N)N)C(=O)N4CCC[C@H]4C(=O)N4C[C@H](O)C[C@H]4C(=O)NCC(=O)N[C@H](C(=O)N[C@@H](CO)C(=O)N[C@@H](C(=O)N4[C@H](C(=O)N[C@@H](CCCNC(=N)N)C(=O)O)C[C@@H]5CCCC[C@@H]54)C4Cc5ccccc5C4)C4Cc5ccccc5C4)c4ccccc4C3(C)C)CCC2)C(C)(C)c2ccccc21` [Peptide B-10665, Cy7-B-9430], for which the “loss of affinity vs. parent peptide” value in [1] is on record as “about equipotent to its parent peptide”. For the same compound, the “binding detected by infrared fluorescence (cell labeling)” value in [5] (30 min, 37 °C, detached intact cells) is “specific binding that plateaued in the low nanomolar range”. Moreover, in [2] (30 min, 37 °C), the “infrared labeling of cells” value is “labelled essentially plasma membranes in the infrared if and only if B2R-GFP was expressed”. Besides, in assay [3], the “labeling of cells expressing β2-adrenoceptor-GFP Topaz” value is “Lack of labeling”. In addition, the “infrared staining of cell wells” value is reported as “stained the cell wells (from a 24-well plate) in a concentration-dependent manner” in assay [6] and “more so for the rat construction” in assay [7]. In assay [8], the “detection of endogenous B2R” value was “could not detect endogenous B2R presence”.

On to `CC(C)NCC(O)c1ccc(O)c(O)c1` (centres unmarked) [isoproterenol, reference compound], for which the β2-adrenoceptor-GFP endocytosis entry in assay [3] is “the receptors are then translocated into endosomes”.

With FTC-B-9430, in assay [9], the pA2 is given as 6.96.

Take `N=C(N)NCCC[C@@H](N)C(=O)N[C@@H](CCCNC(=N)N)C(=O)N1CCC[C@H]1C(=O)N1C[C@H](O)C[C@H]1C(=O)NCC(=O)N[C@H](C(=O)N[C@@H](CO)C(=O)N1[C@H](C(=O)N[C@H](C(=O)N[C@@H](CCCNC(=N)N)C(=O)O)C2Cc3ccccc3C2)C[C@@H]2CCCC[C@@H]21)C1Cc2ccccc2C1` [Peptide B-9972, D-Arg-[Hyp^3,Igl^5,Oic^7,Igl^8]-BK, reference compound]: the “loss of affinity vs. parent peptide” value in assay [1] is reported as “~ twofold”.

As to icatibant [reference compound], the “competition of B-10665 binding” value in [5] (icatibant applied 15 min before B-10665) is “extensive competition”. In addition, the “prevention of B-10665 (10 nM) plasma membrane fluorescence” value in assay [2] (pretreatment of B2R-GFP-expressing cells) is “prevented”.

On to `CC(C)NCC(O)COc1cccc2ccccc12` (centres unmarked) [propranolol, reference compound], for which, in assay [3], the β2-adrenoceptor-GFP endocytosis entry was “agonist-induced endocytosis was prevented”.

Take “fluorescein-5-thiocarbamoyl (FTC)-B-9972 [FTC-B-9972]”: in [9] (contraction), the EC50 was 108 nM.

Turning to `N=C(N)NCCC[C@@H](N)C(=O)N[C@@H](CCCNC(=N)N)C(=O)N1CCC[C@H]1C(=O)N1C[C@H](O)C[C@H]1C(=O)NCC(=O)N[C@H](C(=O)N[C@@H](CO)C(=O)N[C@@H](C(=O)N1[C@H](C(=O)N[C@@H](CCCNC(=N)N)C(=O)O)C[C@@H]2CCCC[C@@H]21)C1Cc2ccccc2C1)C1Cc2ccccc2C1` [Peptide B-9430, D-Arg-[Hyp^3,Igl^5,D-Igl^7,Oic^8]-BK], the pA2 in assay [9] was 7.7.

In general, pA2 refers to the negative logarithm of the molar antagonist concentration that doubles the agonist concentration needed for the same response. A word on the EC50: it is the concentration needed to bring the measured effect to its halfway point.
